Source: patent US20170143653A1, “USE OF SULINDAC FOR PROTECTING RETINAL PIGMENT EPITHELIAL CELLS AGAINST OXIDATIVE STRESS” (CHS PHARMA, INC., priority 2011, published 2017)
“Also recorded” adds a separate entry of the source.

Tests used:
Type in all cases: cell-based
RPE cells [1] = test: Reversal of sulindac protection of RPE cells against UV damage by PKC/PKG inhibitors; conditions: for reversal of the protective effect of sulindac against UV damage: 1200 mj UVB, rottlerin at 3 uM
Description: (§1) The ability of sulindac to protect RPE cells against oxidative stress was determined by analyzing cellular viability following treatment of cultured ARPE19 cells with sulindac, before exposing the cells to conditions leading to oxidative damage. Following 24 hr treatment of the cells with sulindac, ARPE19 cells were exposed to either a range of tert-Butyl Hydrogen peroxide (t-BHP) concentrations for 24 hrs or a range of intensities of ultraviolet B (UVB) to induce oxidative stress. To test the involvement of PKC, the non-specific PKC blocker chelerythrine and also specific blockers for individual isoforms of PKC were used. The possible role of PKG was investigated by the addition of PKG inhibitor Rp-8-Br-PET-CGMPs along with sulindac. Western blotting was used to detect induction of late phase markers of preconditioning.
The sulindac protective effect on RPE cells is due to ischemic preconditioning. The IPC response in tissues is often initiated by ROS and/or NO which activates mitochondrial PKC epsilon as part of a complex mechanism that also involves the opening of the mitochondrial ATP sensitive K+ channel and preventing the formation of the mitochondrial permeability transition pore. We have looked more closely at the possible role of PKC in the protection of RPE cells by sulindac, as was shown previously in cardiac studies. […] Based on previous preconditioning studies it seemed reasonable to look specifically at PKC epsilon. […] In the previous cardiac study it was also shown that two late stage preconditioning markers, iNOS and Hsp27 were induced by sulindac.
The role of PKG in the sulindac protective effect was examined. The above results support previous studies that agents that can initiate an ischemic preconditioning response may have therapeutic value in delaying the onset, or slowing the progression, of retinal diseases arising from ischemia and oxidative damage. […] Both sulindac and sildenafil are known to be inhibitors of PDE5, which results in increasing the level of cGMP and activation of PKG. […]

RPE cells [2] = test: Protection of RPE cells against UVB radiation damage, cell viability
Description: as §1
It seemed reasonable to investigate whether sulindac could also protect other cells, such as RPE cells, which are susceptible to oxidative damage and known to have a strong ischemic preconditioning (IPC) response. Two types of oxidative stress were used in these experiments, either exposure of the RPE cells to an oxidizing agent such as TBHP, or exposure to UV light. In these experiments the RPE cells were pretreated for 24 hours with varying concentrations of sulindac, sulindac sulfone or sildenafil as described in the Figures. […] To determine whether this protective effect was due to the NSAID activity of sulindac, sulindac sulfone, a metabolite, of sulindac that has no NSAID activity was tested in place of sulindac for its UV protective effect. […] It should also be noted that sulindac sulfone is not a substrate for the Msr system which eliminates the possibility that the sulindac protective effect was related to its being a substrate for the Msr enzymes and functioning as a catalytic anti-oxidant in an ROS scavenging system.

ARPE-19 cells [3] = test: Protection of ARPE-19 cells against 24 hr hypoxic stress, cell viability; conditions: 24 hours preincubation, 24 hr hypoxia
Description: (§2) For protecting RPE cells from oxidative stress induced damage we used the NSAID, sulindac. For our experiment we used ARPE-19 cells cultured in 96 well plates. The cells were preincubated with sulindac for 48 hours prior to exposing them to oxidative stress. Our oxidizing agents of choice were TBHP and Hydrogen peroxide (H2O2). We also stressed the ARPE-19 cells with 24 hours of Hypoxia treatment. After the stress the cellular viability was evaluated using the MTS assay. This assay uses a tetrazolium compound that is bioreduced into a formazan product in the cells. The signal generated (color intensity) is directly proportional to the number of viable (metabolically active) cells in the wells.
To test the ability of sulindac; in protecting against a variety of stresses ARPE-19 cells were exposed to 24 hours of hypoxic stress following sulindac preincubation. The ARPE-19 cells were grown in 96 well plates inside a hypoxia chamber having only 5% oxygen for 24 hours to induce hypoxic stress. Prior to exposing the cells to hypoxia, one set of cells was incubated 24 hours with sulindac.

ARPE-19 cells [4] = test: Protection of ARPE-19 cells against H2O2 induced oxidative stress, cell viability; conditions: incubated 24 hrs, then 50 μM H2O2
Description: as §2
The next experiment was designed to determine if preincubation with sulindac is also effective in protecting ARPE-19 cells against oxidative stress induced by treatment of retina cells with H2O2. Cells were incubated with sulindac for 24 hrs and then exposed to 50 μM H2O2.

iNOS = test: Western blot of late phase preconditioning marker iNOS in RPE cells; conditions: RPE cells pretreated 48 hours
Description: as §1
(§3) The sulindac protective effect on RPE cells is due to ischemic preconditioning. The IPC response in tissues is often initiated by ROS and/or NO which activates mitochondrial PKC epsilon as part of a complex mechanism that also involves the opening of the mitochondrial ATP sensitive K+ channel and preventing the formation of the mitochondrial permeability transition pore. We have looked more closely at the possible role of PKC in the protection of RPE cells by sulindac, as was shown previously in cardiac studies. […]

ARPE-19 cells [5] = conditions: human, 48 h
Description: as §2
(§4) ARPE-19 cells were preincubated with different concentrations of sulindac ranging from 50 uM to 400 μM.

ARPE-19 cells [6] = test: Protection of ARPE-19 cells against TBHP oxidative stress, cell viability (MTS)
Description: as §2, §4, §1
It seemed reasonable to investigate whether sulindac could also protect other cells, such as RPE cells, which are susceptible to oxidative damage and known to have a strong ischemic preconditioning (IPC) response. Two types of oxidative stress were used in these experiments, either exposure of the RPE cells to an oxidizing agent such as TBHP, or exposure to UV light. […]

Hsp27 = test: Western blot of late phase preconditioning marker Hsp27 in RPE cells; conditions: RPE cells pretreated 48 hours
Description: as §1, §3

O=c1c2nc(Br)n([C@@H]3O[C@@H]4CO[P@@](O)(=S)O[C@H]4[C@H]3O)c2nc2[nH]c(-c3ccccc3)cn12 [Rp-8-Br-PET-CGMPs]
inhibition of the sulindac protective effect on RPE cells exposed to UV damage (RPE cells [1]; 250 nM, 24 hours with sulindac): > 50%

COc1ccc2c(c[n+](C)c3c4cc5c(cc4ccc23)OCO5)c1OC [chelerythrin]
reversal of the protective effect of sulindac against UV damage (RPE cells [1]): significantly reversed

CC(=O)c1c(O)c(C)c(O)c(Cc2c(O)c3c(c(C(=O)/C=C/c4ccccc4)c2O)OC(C)(C)C=C3)c1O [rottlerin]
reversal of the protective effect of sulindac against UV damage (RPE cells [1]): no reversal

CCCc1nn(C)c2c(=O)[nH]c(-c3cc(S(=O)(=O)N4CCN(C)CC4)ccc3OCC)nc12 [sildenafil]
protection against UV damage (RPE cells [2]; 20 uM, 1200 mj UVB): can also protect RPE cells against UV damage similar to sulindac

CC1=C(CC(=O)O)c2cc(F)ccc2/C1=C\c1ccc(S(C)(=O)=O)cc1 [sulindac sulfone]
protection against UV damage (RPE cells [2]; 200 uM, 24 hours pretreatment): complete protection
protection against hypoxia induced stress (cell viability) (ARPE-19 cells [3]): partial protection
protection against H2O2 induced oxidative stress (ARPE-19 cells [4]): only partial protection

CC1=C(CC(=O)O)c2cc(F)ccc2/C1=C\c1ccc([S+](C)[O-])cc1 (centres unmarked) [sulindac]
protection against UV exposure (RPE cells [2]; 500 uM, 24 hours pretreatment, 1200 mj UV): 50%
protection against UVB insult, survival (RPE cells [2]; 24 hrs pretreatment, range of UVB intensities): protected them against both types of insult and enhanced survival
induction of iNOS (iNOS): significant induction
sulindac concentration toxic to ARPE-19 cells (acute reduction of cell viability) (ARPE-19 cells [5]): ≥ 200 μM
protection against hypoxia induced stress (cell viability) (ARPE-19 cells [3]): significant protection; also recorded: higher viability
protection against t-BHP insult, survival (ARPE-19 cells [6]; 24 hrs pretreatment, t-BHP 24 hrs): protected them against both types of insult and enhanced survival
protection against loss of cell viability due to oxidative stress by TBHP (ARPE-19 cells [6]; ARPE-19 cells preincubated with 50 uM to 400 μM sulindac, 48 hours, MTS assay): protected the ARPE-19 cells against loss of cell viability
protection against TBHP damage (cell viability) (ARPE-19 cells [6]; sulindac 125 and 200 uM, 24 hours pretreatment, varying TBHP): essentially complete protections
induction of Hsp27 (Hsp27): significant induction
protection against H2O2 induced oxidative stress (ARPE-19 cells [4]): capable of protecting retina cells against H2O2 induced oxidative stress
